From patent US10111897B2, “Compositions and methods for treating cancer with JAK2 activity” (Duke University, priority 2013, dated 2018)

Assays:
[1] = patients suffering from MPNs; cited from earlier work
[2] = tested on: multiple JAK2^V617F cell lines; conditions: parental JAK2^V617F cell lines (HEL92.1.7 72 h, Set2 24 h)
Source text: Error bars indicate SD of three replicate experiments. (B) Digitonin-permeabilized HEL92.1.7 cells transduced with the indicated constructs were stained with the mitochondrial potential-sensitive JC1 dye and treated with a panel of BH3 peptides. Percent depolarization is shown as the area under the curve (AUC) normalized to positive control fully depolarized mitochondria (FCCP). DMSO serves as the negative control. Data shown are representative of three independent experiments for each cell line derivative. (C) Same as in (B) except in this case the indicated JAK2^V617F positive cell lines were profiled to query their apoptotic dependencies. […] Blots are representative of three replicate experiments. (E) Twenty-four hours after transduction with the indicated ORFs, HMLE and HEL92.1.7 cells were stained with 7AAD and Annexin V to measure induction of apoptosis. Error bars indicate SD of three replicate experiments.
Cells were seeded in six-well plates and treated with either the indicated amount of drug or vehicle (DMSO). Cells were incubated for the indicated time, washed twice with ice-cold PBS, and resuspended in IX Annexin V binding buffer (10 mM HEPES, 140 mM NaCl, 2.5 mM CaCl2; BD Biosciences). Surface exposure of phosphatidylserine was measured using APC-conjugated Annexin V (BD Biosciences). […] Experiments were analyzed at 20,000 counts/sample using BD FACSVantage SE. […]

BAD = BAD phosphorylation immunoblot in HEL92.1.7 derivatives; format: cell-based, human; conditions: Ras (G12V)-transduced HEL92.1.7, 6 hours of treatment
Procedure: FIG. 10. BAD activity, governed by phosphorylation status at Ser 112 and 136, dictates drug sensitivity and induction of apoptosis in both the drug-sensitive and resistant state. (A-C) After 6 hours of treatment with the specified drugs, protein lysates were prepared from either myr-Akt-transduced HEL92.1.7 (A), Ras (G12V)-transduced HEL92.1.7 (B), Set2-Parental, or Set2-CYTR cells (C) and immunoblotted with the indicated antibodies. Blots are representative of three replicate experiments. […] (E, F) HEL92.1.7 derivatives stably expressing the indicated ORFs were transduced with a second ORF expressing either a second control vector or BAD2SA. (E) Twenty-four hours after selection, cells were stained with 7AAD and Annexin V to measure the induction of apoptosis. Error bars indicate SD of three replicate experiments.
Immunoblotting was performed as previously described (42) and membranes were probed with primary antibodies (1:1000 dilution) recognizing p-STAT5, STAT5, p-STAT3, STAT3, BAD, p-BAD Ser112, p-BAD Ser136, p-Akt (Thr308), Akt, p-ERK1/2 (Thr202/Tyr204), ERK1/2, Pim1, BCL-XL, BCL-2, MCL-1, Bim, Bax, Bak, NaATPase, and β-Actin. All antibodies were purchased from Cell Signaling Technology.

HEL92.1.7 cells = assay: GI50 assay (Cell Titer Glo viability); format: cell-based, human; conditions: for sensitivity of parental and engineered Ras effector-activated cells (viability and apoptosis): HEL92.1.7 ORF-expressing derivatives, apoptosis at 48 hours; for resensitization of Ras-expressing cells to INCB, dual ERK and Akt inhibition: INCB with both VX-11E (2 μM) and MK-2206 (10 μM)
Procedure: (§1) Cells were seeded into 6-well plates and infected with the desired ORF activating allele or control vector. Lentiviruses were produced and applied as previously described (42). Following two days of puromycin selection (2 μg/ml), infected cells were seeded into 96-well plates at 5,000 cells/well.
(§2) To generate […] curves, cells were treated with vehicle (DMSO) or an eight-log serial dilution of drug to yield final concentrations of […]. Each treatment condition was represented by at least three replicates. Three to four days after drug addition, cell viability was measured using Cell Titer Glo® (Promega). Relative viability was then calculated by normalizing luminescence values for each treatment condition to control treated wells.
(§3) To generate GI50 curves for drug combinations, slight modifications are made. Primary drug was applied and diluted as above while the second drug was kept at a constant concentration across all wells except the DMSO-only condition. Viability for all primary drug dilutions was then calculated relative to luminescence values from the secondary drug-only condition. Dose-response curves were fit using Graph pad/Prism 6 software.

Set2 cells = assay: GI50 assay (Cell Titer Glo viability); format: cell-based, human; conditions: for sensitivity of parental and engineered Ras effector-activated cells (relative proliferation): Set2 ORF-expressing derivatives; for sensitization of resistant and parental Set2 cells to JAK inhibitors, co-inhibition of Akt and ERK pathways: MK-2206 plus AZD-6244 (2 μM) plus respective JAK inhibitor
Procedure: as §1, §2, §3

[3] = JAK inhibitor combined with ABT-737; cited from earlier work

| Structure (SMILES) | sensitivity of parental and engineered Ras effector-activated cells (viability and apoptosis) (HEL92.1.7 cells) | sensitivity of parental and engineered Ras effector-activated cells (relative proliferation) (Set2 cells) | sensitization of resistant and parental Set2 cells to JAK inhibitors, co-inhibition of Akt and ERK pathways (Set2 cells) | resensitization of Ras-expressing cells to INCB, dual ERK and Akt inhibition (HEL92.1.7 cells) | further results |
| --- | --- | --- | --- | --- | --- |
| N#CC[C@H](C1CCCC1)n1cc(-c2ncnc3[nH]ccc23)cn1 [INCB] | – | – | – | – | patients with transient reduction of spleen size and alleviation of some symptoms [1]: about 50 % of patients; induction of apoptosis (Annexin-V staining) [2]: induces apoptosis; BAD phosphorylation at Ser 112 and 136 in Ras-expressing cells (BAD): remained phosphorylated |
| CC1(C)CCC(CN2CCN(c3ccc(C(=O)NS(=O)(=O)c4ccc(NCC5CCOCC5)c([N+](=O)[O-])c4)c(Oc4cnc5[nH]ccc5c4)c3)CC2)=C(c2ccc(Cl)cc2)C1 [ABT-199] | insensitive | insensitive | – | – | – |
| Cn1cnc2c(F)c(Nc3ccc(Br)cc3Cl)c(C(=O)NOCCO)cc21 [AZD-6244] | – | – | further sensitized | – | – |
| CN(C)CC[C@H](CSc1ccccc1)Nc1ccc(S(=O)(=O)NC(=O)c2ccc(N3CCN(Cc4ccccc4-c4ccc(Cl)cc4)CC3)cc2)cc1[N+](=O)[O-] [ABT-737] | sensitive | sensitive | – | – | sensitivity of independently evolved JAK inhibitor-resistant cells compared to matched parental cells (Set2 cells; Set2-INCBR and Set2-CYTR vs Set2-Parental): equally sensitive; responses relative to JAK inhibitor monotherapy [3]: improved responses |
| NC1(c2ccc(-c3nc4ccn5c(=O)[nH]nc5c4cc3-c3ccccc3)cc2)CCC1 [MK-2206] | – | – | further sensitized | resensitized | resensitization of Akt-expressing cells to INCB (HEL92.1.7 cells; INCB plus second drug at constant concentration (MK-2206 10 μM; BEZ-235 0.2 μM)): fully resensitized; resensitization of Set2-CYTR and Set2-INCBR cells to JAK inhibitors (Set2 cells; Akt inhibition with MK-2206 plus respective JAK inhibitor, compared with parental GI50 values): resensitized |
| Cc1cnc(Nc2ccc(F)cc2Cl)nc1-c1c[nH]c(C(=O)N[C@H](CO)c2cccc(Cl)c2)c1 [VX-11E] | – | – | – | resensitized | – |
